Reference: the NIST ThermoML archive (doi:10.1016/j.jct.2018.11.014)

Assay: molar heat capacity at constant pressure
Conditions: 101.33 kPa, Crystal, Vacuum adiabatic calorimetry

O=C(CO)[C@@H](O)[C@H](O)[C@H](O)CO [D-fructose]
Conditions | molar heat capacity at constant pressure [J/K/mol]
116.54 K | 92.94
118 K | 94.07
119.43 K | 95.21
120 K | 95.65
120.86 K | 96.29
122.27 K | 97.42
123.72 K | 98.53
125.19 K | 99.73
126.66 K | 100.86
128.15 K | 101.99
129.65 K | 103.12
130 K | 103.4
131.18 K | 104.32
132.78 K | 105.56
134.41 K | 106.79
136.01 K | 107.97
137.61 K | 109.25
139.24 K | 110.5
140 K | 111.05
140.9 K | 111.75
142.55 K | 112.96
144.18 K | 114.21
145.81 K | 115.47
147.46 K | 116.73
149.19 K | 117.96
150 K | 118.61
150.94 K | 119.3
152.67 K | 120.61
154.39 K | 121.92
156.15 K | 123.22
157.94 K | 124.55
159.71 K | 125.9
160 K | 126.11
161.48 K | 127.16
163.23 K | 128.53
165.01 K | 129.85
166.83 K | 131.22
168.63 K | 132.53
170 K | 133.55
170.42 K | 133.87
172.26 K | 135.21
174.19 K | 136.66
176.16 K | 138.12
178.11 K | 139.54
180 K | 140.95
180.05 K | 140.98
181.97 K | 142.44
183.93 K | 143.86
185.92 K | 145.37
187.9 K | 146.78
189.86 K | 148.24
190 K | 148.33
191.82 K | 149.62
193.8 K | 151.13
195.89 K | 152.65
198.03 K | 154.23
200 K | 155.71
200.16 K | 155.79
202.27 K | 157.38
204.41 K | 158.97
206.59 K | 160.59
208.75 K | 162.27
210 K | 163.12
210.91 K | 163.79
213.05 K | 165.43
215.22 K | 166.88
217.41 K | 168.61
219.6 K | 170.28
220 K | 170.57
221.78 K | 172.01
223.94 K | 173.59
226.14 K | 175.1
228.44 K | 176.89
230 K | 178.09
230.8 K | 178.65
233.16 K | 180.52
235.5 K | 182.33
237.87 K | 184.07
240 K | 185.67
240.27 K | 185.87
242.65 K | 187.7
245.03 K | 189.43
247.39 K | 191.32
249.78 K | 193.01
250 K | 193.28
252.2 K | 194.95
254.6 K | 196.74
257 K | 198.58
259.38 K | 200.5
260 K | 200.91
261.79 K | 202.31
264.29 K | 204.15
266.82 K | 206.25
269.35 K | 208.09
270 K | 208.52
271.87 K | 210.03
274.41 K | 211.71
276.98 K | 213.84
279.54 K | 215.75
280 K | 216.17
282.08 K | 217.72
284.61 K | 219.77
287.17 K | 221.78
289.76 K | 223.86
290 K | 224.03
292.33 K | 225.93
294.92 K | 227.98
297.52 K | 230.08
298.15 K | 230.55
300 K | 232.04
300.15 K | 232.18
302.81 K | 234.38
305.45 K | 236.46
308.08 K | 238.4
310 K | 240.14
310.7 K | 240.73
313.34 K | 242.98
316 K | 244.99
318.66 K | 247.19
320 K | 248.27
321.3 K | 249.35
323.93 K | 251.32
326.58 K | 253.53
329.26 K | 255.9
330 K | 256.36
